Species on record: Rattus norvegicus
Experiment: Open TG-GATES - Regimen: Single
Type: toxicity, organism-based, Sprague-Dawley
Design: regimen Single, gender Male, age 6 weeks
Settings: in vivo, po, 6 mg/kg, route gavage, dose level Middle; for APTT / Bas / Eos / Fbg / Hb / Lym / MCH / MCHC / MCV / Mono / Neu / PT / Plat / RBC / Ret / WBC: tissue Blood; for KIDNEY_L / KIDNEY_R / KIDNEY_TOTAL: tissue Kidney; for LIVER: tissue Liver; for ALP / ALT / AST / BUN / CRE / Ca / Cl / DBIL / GLC / IP / K / LDH / Na / PL / RALB / TBIL / TC / TG / TP / gamma-GTP: tissue Plasma

OCCN1CCN(CCCN2c3ccccc3Sc3ccc(C(F)(F)F)cc32)CC1 [FLUPHENAZINE]
TERMINAL_BW (3 h): 196.9 g | APTT (3 h): 16 s | Bas (3 h): 0% | Eos (3 h): 0.6% | Fbg (3 h): 213.6 mg/dL | Hb (3 h): 12.8 g/dL | Lym (3 h): 75% | MCH (3 h): 21.2 pg | MCHC (3 h): 32.9% | MCV (3 h): 64.2 fL | Mono (3 h): 9.2% | Neu (3 h): 15.2% | PT (3 h): 12.5 s | Plat (3 h): 98.9 x10_4/uL | RBC (3 h): 607.8 x10_4/ul | Ret (3 h): 7.7% | WBC (3 h): 78.7 x10_2/uL | KIDNEY_L (3 h): 0.9 g | KIDNEY_R (3 h): 0.9 g | KIDNEY_TOTAL (3 h): 1.8 g | LIVER (3 h): 9.1 g | ALP (3 h): 915 IU/L | ALT (3 h): 35.8 IU/L | AST (3 h): 63.2 IU/L | BUN (3 h): 10 mg/dL | CRE (3 h): 0.5 mg/dL | Ca (3 h): 10.3 mg/dL | Cl (3 h): 105.4 meq/L | DBIL (3 h): 0.008 mg/dL | GLC (3 h): 191 mg/dL | IP (3 h): 10.4 mg/dL | K (3 h): 4.4 meq/L | LDH (3 h): 91.6 IU/L | Na (3 h): 138.2 meq/L | PL (3 h): 136.6 mg/dL | RALB (3 h): 3.6 g/dL | TBIL (3 h): 0.4 mg/dL | TC (3 h): 77.2 mg/dL | TG (3 h): 48 mg/dL | TP (3 h): 5.3 g/dL | gamma-GTP (3 h): 1.8 IU/L | TERMINAL_BW (6 h): 195.2 g | APTT (6 h): 16.4 s | Bas (6 h): 0% | Eos (6 h): 0.8% | Fbg (6 h): 211.6 mg/dL | Hb (6 h): 13.2 g/dL | Lym (6 h): 74.4% | MCH (6 h): 21.3 pg | MCHC (6 h): 32.8% | MCV (6 h): 64.9 fL | Mono (6 h): 9.4% | Neu (6 h): 15.8% | PT (6 h): 12.3 s | Plat (6 h): 113.8 x10_4/uL | RBC (6 h): 620.4 x10_4/ul | Ret (6 h): 8.6% | WBC (6 h): 89.6 x10_2/uL | KIDNEY_L (6 h): 0.9 g | KIDNEY_R (6 h): 0.9 g | KIDNEY_TOTAL (6 h): 1.8 g | LIVER (6 h): 8.8 g | ALP (6 h): 722.4 IU/L | ALT (6 h): 30 IU/L | AST (6 h): 56.2 IU/L | BUN (6 h): 10.4 mg/dL | CRE (6 h): 0.5 mg/dL | Ca (6 h): 10.2 mg/dL | Cl (6 h): 105.6 meq/L | DBIL (6 h): 0.014 mg/dL | GLC (6 h): 196 mg/dL | IP (6 h): 10.2 mg/dL | K (6 h): 4.7 meq/L | LDH (6 h): 90.8 IU/L | Na (6 h): 136 meq/L | PL (6 h): 144.4 mg/dL | RALB (6 h): 3.6 g/dL | TBIL (6 h): 0.4 mg/dL | TC (6 h): 84.6 mg/dL | TG (6 h): 26.8 mg/dL | TP (6 h): 5.3 g/dL | gamma-GTP (6 h): 1.4 IU/L | TERMINAL_BW (9 h): 194 g | APTT (9 h): 16.5 s | Bas (9 h): 0% | Eos (9 h): 0.6% | Fbg (9 h): 227 mg/dL | Hb (9 h): 13.2 g/dL | Lym (9 h): 79.2% | MCH (9 h): 22.1 pg | MCHC (9 h): 33.3% | MCV (9 h): 66.3 fL | Mono (9 h): 5.8% | Neu (9 h): 14.8% | PT (9 h): 12.5 s | Plat (9 h): 112.2 x10_4/uL | RBC (9 h): 598.2 x10_4/ul | Ret (9 h): 7.8% | WBC (9 h): 74.5 x10_2/uL | KIDNEY_L (9 h): 0.9 g | KIDNEY_R (9 h): 1 g | KIDNEY_TOTAL (9 h): 1.9 g | LIVER (9 h): 7.9 g | ALP (9 h): 730.2 IU/L | ALT (9 h): 30.4 IU/L | AST (9 h): 54.2 IU/L | BUN (9 h): 9.2 mg/dL | CRE (9 h): 0.5 mg/dL | Ca (9 h): 10.1 mg/dL | Cl (9 h): 106.2 meq/L | DBIL (9 h): 0.038 mg/dL | GLC (9 h): 189 mg/dL | IP (9 h): 10.5 mg/dL | K (9 h): 4.2 meq/L | LDH (9 h): 83.8 IU/L | Na (9 h): 138.4 meq/L | PL (9 h): 133.2 mg/dL | RALB (9 h): 3.7 g/dL | TBIL (9 h): 0.4 mg/dL | TC (9 h): 80.6 mg/dL | TG (9 h): 21.4 mg/dL | TP (9 h): 5.5 g/dL | gamma-GTP (9 h): 1.8 IU/L | TERMINAL_BW (24 h): 201.5 g | APTT (24 h): 16.7 s | Bas (24 h): 0% | Eos (24 h): 1.2% | Fbg (24 h): 208 mg/dL | Hb (24 h): 13.7 g/dL | Lym (24 h): 81.4% | MCH (24 h): 21.6 pg | MCHC (24 h): 33.2% | MCV (24 h): 64.9 fL | Mono (24 h): 9% | Neu (24 h): 8.6% | PT (24 h): 11.9 s | Plat (24 h): 112.8 x10_4/uL | RBC (24 h): 636 x10_4/ul | Ret (24 h): 7.3% | WBC (24 h): 85.5 x10_2/uL | KIDNEY_L (24 h): 0.9 g | KIDNEY_R (24 h): 0.9 g | KIDNEY_TOTAL (24 h): 1.8 g | LIVER (24 h): 9.6 g | ALP (24 h): 748.4 IU/L | ALT (24 h): 28.2 IU/L | AST (24 h): 56.6 IU/L | BUN (24 h): 23.8 mg/dL | CRE (24 h): 0.5 mg/dL | Ca (24 h): 11 mg/dL | Cl (24 h): 103.6 meq/L | DBIL (24 h): 0.03 mg/dL | GLC (24 h): 176.8 mg/dL | IP (24 h): 8 mg/dL | K (24 h): 5 meq/L | LDH (24 h): 90 IU/L | Na (24 h): 137.2 meq/L | PL (24 h): 154.6 mg/dL | RALB (24 h): 4.2 g/dL | TBIL (24 h): 0.3 mg/dL | TC (24 h): 84.4 mg/dL | TG (24 h): 94.4 mg/dL | TP (24 h): 6.1 g/dL | gamma-GTP (24 h): 1.2 IU/L
